Source: paper PMC6592956, “Characterization of Porcine Hepatic and Intestinal Drug Metabolizing CYP450: Comparison with Human Orthologues from A Quantitative, Activity and Selectivity Perspective” (Scientific Reports, 2019)
Marks after values point to notes of the source that are not given here.

Experiments:
porcine CYP450 = details: outcome of general decision tree, Figure 4
[1] = test system: porcine intestinal CYP450 enzymes; experiment: in vitro; details: pig
Experimental: Intestinal microsomes were incubated as described above for hepatic microsomes. […] Each activity measurement (hepatic and intestinal) was performed in triplicate and data are present [...

[2] = test system: hepatic CYP450 abundancies; experiment: Pearson correlation between hepatic CYP450 abundancies and probe activities
CYP1A [3] = details: n = 8
Experimental: (§1) The incubation times were derived from linearity experiments. […] Protein concentrations and time were chosen at the lowest possible value to allow reliable quantification, within the linear range of the biotransformation reaction.
(§2) The activity data were fitted against the standard Michaelis-Menten equation (Eq. (1a), first term). For each profile, Eadie-Hofstee plots were derived to investigate involvement of more than one enzyme or deviation from normal Michaelis-Menten behaviour. If the Eadie-Hofstee plot was hyperbolic, the data was fitted against the Hill equation[60]. Km, Vmax and/or Hill coefficients were derived for each substrate and pig, in order to obtain the inter-individual variation.
(§3) Stepwise linear regression, correlation analyses, and independent sample t-tests were performed with the SPSS® 24 software (IBM, New York, USA). Sex differences in hepatic protein abundances, Km, and Vmax values, were analyzed by an independent sample t-test. Normality was checked using the Shapiro Wilk test. If the Shapiro Wilk test statistic was significant, log transformation was used to calculate the t-statistic. Equality of variances was checked using the Levene’s test for equality of variances. The appropriate test statistic was used depending on the equality of variances.

CYP1A [4] = details: n = 8; remark: listed apart in the source
Experimental: as §1, §2, §3

COc1ccc2c(c1)[C@]13CCCC[C@@H]1[C@H](C2)N(C)CC3 [DXM, Dextromethorphan]
Enzyme involvement: High affinity (porcine CYP450): CYP2D25 | Enzyme involvement: Low affinity (porcine CYP450): CYP3A | Km at 10 min ([1]; Duodenum Km, duodenal microsomes, pool of 16 pigs, n=3, mean (SD)): 31.5 µM | Pearson's correlation coefficient, DXM activity vs hepatic CYP2C33 abundance ([2]; level 1 (DXM 0.10 µM)): 0.59 | Pearson's correlation coefficient, DXM activity vs hepatic CYP2E1 abundance ([2]; level 1 (DXM 0.10 µM)): 0.55 | Pearson's correlation coefficient, DXM activity vs hepatic CYP3A46 abundance ([2]; level 1 (DXM 0.10 µM)): 0.59 | Pearson's correlation coefficient, DXM activity vs hepatic CYP2C33 abundance ([2]; level 2 (DXM 0.50 µM)): 0.65* | Pearson's correlation coefficient, DXM activity vs hepatic CYP2D25 abundance ([2]; level 2 (DXM 0.50 µM)): 0.55 | Pearson's correlation coefficient, DXM activity vs hepatic CYP2E1 abundance ([2]; level 2 (DXM 0.50 µM)): 0.57 | Pearson's correlation coefficient, DXM activity vs hepatic CYP3A29 abundance ([2]; level 2 (DXM 0.50 µM)): 0.52 | Pearson's correlation coefficient, DXM activity vs hepatic CYP3A46 abundance ([2]; level 2 (DXM 0.50 µM)): 0.65* | Pearson's correlation coefficient, DXM activity vs hepatic CYP1A2 abundance ([2]; level 3 (DXM 1.00 µM)): 0.54 | Pearson's correlation coefficient, DXM activity vs hepatic CYP2C33 abundance ([2]; level 3 (DXM 1.00 µM)): 0.65* | Pearson's correlation coefficient, DXM activity vs hepatic CYP2D25 abundance ([2]; level 3 (DXM 1.00 µM)): 0.57 | Pearson's correlation coefficient, DXM activity vs hepatic CYP2E1 abundance ([2]; level 3 (DXM 1.00 µM)): 0.60 | Pearson's correlation coefficient, DXM activity vs hepatic CYP3A29 abundance ([2]; level 3 (DXM 1.00 µM)): 0.56 | Pearson's correlation coefficient, DXM activity vs hepatic CYP3A46 abundance ([2]; level 3 (DXM 1.00 µM)): 0.73* | Pearson's correlation coefficient, DXM activity vs hepatic CYP1A2 abundance ([2]; level 4 (DXM 5.00 µM)): 0.56 | Pearson's correlation coefficient, DXM activity vs hepatic CYP2C33 abundance ([2]; level 4 (DXM 5.00 µM)): 0.70* | Pearson's correlation coefficient, DXM activity vs hepatic CYP2D25 abundance ([2]; level 4 (DXM 5.00 µM)): 0.63* | Pearson's correlation coefficient, DXM activity vs hepatic CYP2E1 abundance ([2]; level 4 (DXM 5.00 µM)): 0.56 | Pearson's correlation coefficient, DXM activity vs hepatic CYP3A29 abundance ([2]; level 4 (DXM 5.00 µM)): 0.58 | Pearson's correlation coefficient, DXM activity vs hepatic CYP3A46 abundance ([2]; level 4 (DXM 5.00 µM)): 0.78* | Pearson's correlation coefficient, DXM activity vs hepatic CYP1A2 abundance ([2]; level 5 (DXM 20.0 µM)): 0.55 | Pearson's correlation coefficient, DXM activity vs hepatic CYP2C33 abundance ([2]; level 5 (DXM 20.0 µM)): 0.70* | Pearson's correlation coefficient, DXM activity vs hepatic CYP2D25 abundance ([2]; level 5 (DXM 20.0 µM)): 0.63* | Pearson's correlation coefficient, DXM activity vs hepatic CYP2E1 abundance ([2]; level 5 (DXM 20.0 µM)): 0.52 | Pearson's correlation coefficient, DXM activity vs hepatic CYP3A29 abundance ([2]; level 5 (DXM 20.0 µM)): 0.58 | Pearson's correlation coefficient, DXM activity vs hepatic CYP3A46 abundance ([2]; level 5 (DXM 20.0 µM)): 0.75* | Pearson's correlation coefficient, DXM activity vs hepatic CYP1A2 abundance ([2]; level 6 (DXM 100 µM)): 0.54 | Pearson's correlation coefficient, DXM activity vs hepatic CYP2C33 abundance ([2]; level 6 (DXM 100 µM)): 0.67* | Pearson's correlation coefficient, DXM activity vs hepatic CYP2D25 abundance ([2]; level 6 (DXM 100 µM)): 0.66* | Pearson's correlation coefficient, DXM activity vs hepatic CYP2E1 abundance ([2]; level 6 (DXM 100 µM)): 0.54 | Pearson's correlation coefficient, DXM activity vs hepatic CYP3A29 abundance ([2]; level 6 (DXM 100 µM)): 0.59 | Pearson's correlation coefficient, DXM activity vs hepatic CYP3A46 abundance ([2]; level 6 (DXM 100 µM)): 0.74* | Correlation (r) of CYP2D25 with DXM-O-demethylation ([2]; range over concentration levels): 0.55–0.66

CCOc1ccc(NC(C)=O)cc1 [PH, phenacetin]
log_Km, male (CYP1A [3]): 1,2876 | log_Km, female (CYP1A [4]): 1,1345

CCOc1ccc(NC(C)=O)cc1 [PH, Phenacetin]
Km at 10 min ([1]; duodenal microsomes): 144 µM | Km at 10 min ([1]; ileal microsomes): 189 µM | Km at 10 min ([1]; jejunal microsomes): 182 µM | Pearson's correlation coefficient, PH activity vs hepatic CYP3A46 abundance ([2]; level 6 (PH 200 µM)): 0.51

B1: CYP3A29 (protein, UniProt P79401 1-503, looked up)
Cytochrome P450 3A29: MDLIPGFSTETWVLLATSLVLLYLYGTYSHGLFKKLGIPGPRPLPYFGNILGYRKGVDHFDKKCFQQYGKMWGVYDGRQPLLAVTDPNMIKSVLVKECYSVFTNRRSFGPLGAMRNALSLAEDEEWKRIRTLLSPTFTSGKLKEMFPIISHYGDLLVSNLRKEAEKGKPVTMKDIFGAYSMDVITSTAFGVNIDSLNNPQDPFVENSKKLLKFSFFDPFLLSLIFFPFLTPIFEVLNITLFPKSSVNFFTKSVKRMKESRLTDQQKRRVDLLQLMINSQNSKEMDPHKSLSNEELVAQGIIFIFAGYETTSSALSLLAYELATHPDVQQKLQEEIEATFPNKAPPTYDALAQMEYLDMVVNETLRLYPIAARLERACKKDVEIHGVFVPKGTVVVVPVFVLHRDPDLWPEPEEFRPERFSKKHKDTINPYTYLPFGTGPRNCIGMRFALMNMKLALVRVLQNFSFKPCKETQIPLKLTTQGLTQPEKPVVLKILPRDGTVSGA
Amount (hepatic CYP450): 4.74 pmol/mg protein

B2: CYP2D25 (protein, UniProt O46658 2-500, looked up)
Vitamin D(3) 25-hydroxylase: GLLTGDLLGILALAMVIFLLLVDLMHRRSRWAPRYPPGPMPLPGLGNLLQVNFQDPRLSFIQLRRRFGDVFSLQQIWRPVVVLNGLAAVREALVSHSHETSDRPPVFILEHLGYGPRSEGVILARYGKAWREQRRFSVSTLRNFGLGKKSLEEWVTQEASCLCAAFADQAGRPFSPNNLLNKAVSNVIASLTFARRFEYNDPRMLKLLDLVLEGLKEEVGLMRQVLEAMPVLRHIPGLCAKLFPRQKAFLVMIDELITEHKMTRDLAQPPRDLTDAFLDEMKEAKGNPESSFNDENLRLVVAHLFSAGMITTSTTLAWALLLMILHPDVQRRVQQEIDEVIGHVRQPEIKDQALMPFTLAVLHEVQRFGDIVPLGVAHMTSCDIEVQGFLIPKGTTLITNLTSVLKDETVWKKPFRFYPEHFLDAQGRFTKQEAFMPFSAGRRSCLGEPLARMELFLFFTTLLQAFSFSVPTGQPCPSDHGVFAFLLFPSPYQLCAVPR
log abundance, Mean Difference (t-test for Equality of Means) (hepatic CYP450): ,05407 | log abundance, Sig. (2-tailed) (hepatic CYP450): ,497
